Measured values: patent publication US20230002375A1, “HYDROPYRAZINO[1,2-B]ISOQUINOLINE COMPOUNDS FOR THE TREATMENT OF AUTOIMMUNE DISEASE” (Hoffmann-La Roche Inc., priority 2019, published 2023)

Columns and labels:
human TLR8 = target: T1, human TLR8 (Homo sapiens, UniProt Q9NR97); assay: HEK293-Blue-hTLR-8 cells assay (SEAP reporter, R848 stimulation); assay type: cell-based; conditions: HEK293-Blue-hTLR8 cells, R848, 20 hrs incubation; read-out: HEK/hTLR8 IC50
T1 sequence (Q9NR97 27-1041): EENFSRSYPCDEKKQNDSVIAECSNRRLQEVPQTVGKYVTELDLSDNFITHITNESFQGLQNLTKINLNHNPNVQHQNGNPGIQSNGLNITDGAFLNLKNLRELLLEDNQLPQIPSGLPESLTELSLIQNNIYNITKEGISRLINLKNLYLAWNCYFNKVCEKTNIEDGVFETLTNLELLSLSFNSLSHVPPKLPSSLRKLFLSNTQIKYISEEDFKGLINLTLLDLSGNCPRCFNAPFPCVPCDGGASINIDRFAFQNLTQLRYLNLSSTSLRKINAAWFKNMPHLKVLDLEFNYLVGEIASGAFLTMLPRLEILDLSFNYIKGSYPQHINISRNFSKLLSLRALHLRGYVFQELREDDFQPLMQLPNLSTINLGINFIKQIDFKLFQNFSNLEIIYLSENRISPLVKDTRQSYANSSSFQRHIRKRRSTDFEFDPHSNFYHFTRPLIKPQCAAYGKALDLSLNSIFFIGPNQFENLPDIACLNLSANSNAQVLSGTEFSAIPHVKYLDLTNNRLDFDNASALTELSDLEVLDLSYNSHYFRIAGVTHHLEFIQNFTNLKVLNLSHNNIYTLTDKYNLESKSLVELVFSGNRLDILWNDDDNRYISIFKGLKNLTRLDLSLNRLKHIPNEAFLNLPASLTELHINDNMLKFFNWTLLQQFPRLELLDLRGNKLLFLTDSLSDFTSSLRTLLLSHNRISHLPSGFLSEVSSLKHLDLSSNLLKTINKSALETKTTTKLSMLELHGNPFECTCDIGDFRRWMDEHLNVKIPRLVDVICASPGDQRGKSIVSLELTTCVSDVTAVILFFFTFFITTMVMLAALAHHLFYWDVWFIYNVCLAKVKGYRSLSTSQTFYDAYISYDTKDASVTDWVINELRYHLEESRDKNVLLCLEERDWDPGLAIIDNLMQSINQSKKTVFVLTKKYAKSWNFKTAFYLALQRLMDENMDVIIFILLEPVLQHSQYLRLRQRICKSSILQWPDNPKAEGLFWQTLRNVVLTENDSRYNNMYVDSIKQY
Procedure: The following tests were carried out in order to determine the activity of the compounds of formula (I), (Ia) or (Ib) in HEK293-Blue-hTLR-7/8/9 cells assay.
HEK293-Blue-hTLR-8 Cells Assay:
A stable HEK293-Blue-hTLR-8 cell line was purchased from InvivoGen (Cat.#: hkb-htlr8, San Diego, Calif., USA). These cells were originally designed for studying the stimulation of human TLR8 by monitoring the activation of NF-κB. A SEAP (secreted embryonic alkaline phosphatase) reporter gene was placed under the control of the IFN-β minimal promoter fused to five NF-κB and AP-1-binding sites. The SEAP was induced by activating NF-κB and AP-1 via stimulating HEK-Blue hTLR8 cells with TLR8 ligands. Therefore the reporter expression was declined by TLR8 antagonist under the stimulation of a ligand, such as R848, for incubation of 20 hrs. The cell culture supernatant SEAP reporter activity was determined using QUANTI-Blue™ kit (Cat.#: rep-qb1, Invivogen, San Diego, Ca, USA) at a wavelength of 640 nm, a detection medium that turns purple or blue in the presence of alkaline phosphatase.
HEK293-Blue-hTLR8 cells were incubated at a density of 250,000-450,000 cells/mL in a volume of 170 μL in a 96-well plate in Dulbecco's Modified Eagle's medium (DMEM) containing 4.5 g/L glucose, 50 U/mL penicillin, […], […], 2 mM L-glutamine, 10% (v/v) heat-inactivated fetal bovine serum with addition of 20 μL test compound in a serial dilution in the presence of final DMSO at 1% and 10 μL of 60 uM R848 in above DMEM, perform incubation under 37° C. in a CO2 incubator for 20 hrs. Then 20 μL of the supernatant from each well was incubated with 180 μL Quanti-blue substrate solution at 37° C. for 2 hrs and the absorbance was read at 620˜655 nm using a spectrophotometer. The signaling pathway that TLR8 activation leads to downstream NF-κB activation has been widely accepted, and therefore similar reporter assay was modified for evaluating TLR8 antagonist.

[1] = Human microsomal stability assay; assay type: in vitro ADME; conditions: human liver microsomes, 1 μM test compound, 0.5 mg/mL protein, 37° C.; low <7.0, medium 7.0-16.2, high 16.2-23.2 mL/min/kg
Procedure: Human Microsomal Stability Assay
Human liver microsomes (Cat.NO.: 452117, Corning, USA) were preincubated with test compound for 10 minutes at 37° C. in 100 mM potassium phosphate buffer, pH 7.4. The reactions were initiated by adding NADPH regenerating system. The final incubation mixtures contained 1 μM test compound, 0.5 mg/mL liver microsomal protein, 1 mM MgCl2, 1 mM NADP, 1 unit/mL isocitric dehydrogenase and 6 mM isocitric acid in 100 mM potassium phosphate buffer, pH 7.4. After incubation times of 0, 3, 6, 9, 15 and 30 minutes at 37° C., 300 μL of cold ACN (including internal standard) was added to 100 μL incubation mixture to terminate the reaction. Following precipitation and centrifugation, 100 uL supernatant will be taken out and added 300 uL water. The amount of compound remaining in the samples was determined by LC-MS/MS. Controls of no NADPH regenerating system at zero and 30 minutes were also prepared and analyzed. The results were categorized as: low (<7.0 mL/min/kg), medium (7.0-16.2 mL/min/kg) and high (16.2-23.2 mL/min/kg).

SMILES | IC50 (human TLR8) | CL(h) [1]
C[C@@H]1CN(c2ccc(C#N)c3ncccc23)C[C@@H]2Cc3cc(OCCN(C)C)ccc3CN21 [Example 11, 5-[(4R,11aS)-9-[2-(dimethylamino)ethoxy]-4-methyl-1,3,4,6,11,11a-hexahydropyrazino[1,2-b]isoquinolin-2-yl]quinoline-8-carbonitrile] | 11.1 nM | 
C[C@@H]1CN(c2ccc(C#N)c3ncccc23)C[C@@H]2Cc3cc(N4CC5NCCOC5C4)ccc3CN21 (stereo in doubt) [Example 10, 5-[(4R,11aS)-9-[(4aS,7aS)-3,4,4a,5,7,7a-hexahydro-2H-pyrrolo[3,4-b][1,4]oxazin-6-yl]-4-methyl-1,3,4,6,11,11a-hexahydropyrazino[1,2-b]isoquinolin-2-yl]quinoline-8-carbonitrile] | 1.5 nM | 9.3 mL/min/kg
CO[C@H]1CN(c2ccc3c(c2)C[C@H]2CN(c4ccc(C#N)c5ncccc45)C[C@@H](C)N2C3)C[C@H]1N [Example 9, 5-[(4R,11aS)-9-[(3R,4S)-3-amino-4-methoxy-pyrrolidin-1-yl]-4-methyl-1,3,4,6,11,11a-hexahydropyrazino[1,2-b]isoquinolin-2-yl]quinoline-8-carbonitrile] | 2.3 nM | 8.8 mL/min/kg
C[C@@H]1CN(c2ccc(C#N)c3ncccc23)C[C@@H]2Cc3ccc(N4CCOCC(N)C4)cc3CN21 (stereo partly drawn) [Example 1, 5-[(4R,11aS)-8-(6-amino-1,4-oxazepan-4-yl)-4-methyl-1,3,4,6,11,11a-hexahydropyrazino[1,2-b]isoquinolin-2-yl]quinoline-8-carbonitrile] | 14.5 nM | 
C[C@@H]1CN(c2ccc(C#N)c3ncccc23)C[C@@H]2Cc3cc(N4C[C@@H]5CNCCN5C4=O)ccc3CN21 (single isomer, unassigned) [Example 17A] | 8 nM | 
C[C@@H]1CN(c2ccc(C#N)c3ncccc23)C[C@@H]2Cc3cc(N4CC5CCNCC5C4=O)ccc3CN21 (stereo partly drawn) [Example 18, 5-[(4R,11aS)-4-methyl-9-(3-oxo-3a,4,5,6,7,7a-hexahydro-1H-pyrrolo[3,4-c]pyridin-2-yl)-1,3,4,6,11,11a-hexahydropyrazino[1,2-b]isoquinolin-2-yl]quinoline-8-carbonitrile] | 14.5 nM | 
C[C@@H]1CN(c2ccc(C#N)c3ncccc23)C[C@@H]2Cc3cc(N4C[C@@H]5C[C@H]4CN5C(=O)C(C)(C)N)ccc3CN21 [Example 15, 5-[(4R,11aS)-9-[(1S,4S)-5-(2-amino-2-methyl-propanoyl)-2,5-diazabicyclo[2.2.1]heptan-2-yl]-4-methyl-1,3,4,6,11,11a-hexahydropyrazino[1,2-b]isoquinolin-2-yl]quinoline-8-carbonitrile] | 4.7 nM | 
C[C@@H]1CN(c2ccc(C#N)c3ncccc23)C[C@@H]2Cc3cc(N[C@@H]4CNC[C@@H]4F)ccc3CN21 [Example 6, 5-[(4R,11aS)-4-methyl-9-[[(3R,4S)-4-fluoropyrrolidin-3-yl]amino]-1,3,4,6,11,11a-hexahydropyrazino[1,2-b]isoquinolin-2-yl]quinoline-8-carbonitrile] | 26.1 nM | 6.8 mL/min/kg
C[C@@H]1CN(c2ccc(C#N)c3ncccc23)C[C@@H]2Cc3cc(N4C[C@H]5CNCCN5C4=O)ccc3CN21 (single isomer, unassigned) [Example 17B] | 2.4 nM | 
C[C@@H]1CN(c2ccc(C#N)c3ncccc23)C[C@@H]2Cc3cc(N4CC(N)CC4=O)ccc3CN21 (stereo partly drawn) [Example 16, 5-[(4R,11aS)-9-(4-amino-2-oxo-pyrrolidin-1-yl)-4-methyl-1,3,4,6,11,11a-hexahydropyrazino[1,2-b]isoquinolin-2-yl]quinoline-8-carbonitrile] | 5.3 nM | 6.8 mL/min/kg
C[C@@H]1CN(c2ccc(C#N)c3ncccc23)C[C@@H]2Cc3cc(N4CC5CNCCC5C4=O)ccc3CN21 (stereo partly drawn) [Example 19, 5-[(4R,11aS)-4-methyl-9-(1-oxo-3a,4,5,6,7,7a-hexahydro-3H-pyrrolo[3,4-c]pyridin-2-yl)-1,3,4,6,11,11a-hexahydropyrazino[1,2-b]isoquinolin-2-yl]quinoline-8-carbonitrile] | 4.2 nM | 
CO[C@H]1CNC[C@H]1Nc1ccc2c(c1)C[C@H]1CN(c3ccc(C#N)c4ncccc34)C[C@@H](C)N1C2 [Example 7, 5-[(4R,11aS)-9-[[(3R,4S)-4-methoxypyrrolidin-3-yl]amino]-4-methyl-1,3,4,6,11,11a-hexahydropyrazino[1,2-b]isoquinolin-2-yl]quinoline-8-carbonitrile] | 13.5 nM | 
C[C@@H]1CN(c2ccc(C#N)c3ncccc23)C[C@@H]2Cc3ccc(NCCN4CC[C@H](O)C4)cc3CN21 [Example 2, 5-[(4R,11aS)-8-[2-[(3S)-3-hydroxypyrrolidin-1-yl]ethylamino]-4-methyl-1,3,4,6,11,11a-hexahydropyrazino[1,2-b]isoquinolin-2-yl]quinoline-8-carbonitrile] | 4.2 nM | 
C[C@@H]1CN(c2ccc(C#N)c3ncccc23)C[C@@H]2Cc3ccc(OCCN(C)C)cc3CN21 [Example 5, 5-[(4R,11aS)-8-[2-(dimethylamino)ethoxy]-4-methyl-1,3,4,6,11,11a-hexahydropyrazino[1,2-b]isoquinolin-2-yl]quinoline-8-carbonitrile] | 9.2 nM | 
C[C@@H]1CN(c2ccc(C#N)c3ncccc23)C[C@@H]2Cc3cc(N4C[C@@H](F)[C@@H](N)C4)ccc3CN21 [Example 8, 5-[(4R,11aS)-9-[(3S,4R)-3-amino-4-fluoro-pyrrolidin-1-yl]-4-methyl-1,3,4,6,11,11a-hexahydropyrazino[1,2-b]isoquinolin-2-yl]quinoline-8-carbonitrile] | 21.5 nM | 9.6 mL/min/kg
C[C@@H]1CN(c2ccc(C#N)c3ncccc23)C[C@@H]2Cc3cc(OC[C@@H]4CCN4)ccc3CN21 [Example 12, 5-[(4R,11aS)-9-[[(2S)-azetidin-2-yl]methoxy]-4-methyl-1,3,4,6,11,11a-hexahydropyrazino[1,2-b]isoquinolin-2-yl]quinoline-8-carbonitrile] | 22.9 nM | 
